{"source": "patent US20040234476A1", "about": "“Cosmetic preparation with anti-wrinkle action” (priority 2001, published 2004)", "tested_on": "cells", "assay": "in vitro studies of collagen and glycosaminoglycan synthesis by cells", "assay_type": "cell-based", "note": "Where no end group is shown, it is not given here. The star is where a group is joined. Palmitoyl = CCCCCCCCCCCCCCCC(=O)*", "data": [{"substance": "palmitoyl-Lys-Thr-Thr-Lys-Ser (Palmitoyl-KTTKS) [lipopeptide]", "values": [{"measurement": "synthesis of collagen and glycosaminoglycans by cells", "value": "induces cells to synthesize collagen and glycosaminoglycans"}]}]}
